Read-outs that look alike come from different tables or passages of the source.
Tests used:
[1] = tested on: advanced HFrEF patients (ADRB1 Arg389Gly / ADRA2C Ins322-325Del genotypes); assay: BEST trial and DNA (pharmacogenetic) substudy: bucindolol vs. placebo; assay type: in vivo, human
Text: The relationship of the ADRA2C Ins/Del polymorphism to systemic NE levels and clinical outcomes was investigated as part of the BEST trial AR polymorphism substudy.
Variables identified in the GENETIC-AF Statistical Analysis Plan (SAP) that were potential predictors of the primary endpoint were investigated by precision therapeutic phenotyping. Hypothesis-based (e.g., AF duration, AF type, LVEF, NYHA Class, NT-proBNP, norepinephrine) and hypothesis-free (e.g. HF duration, initial study dose) elements were included in the multivariate methodology, which was applied to both obvious and non-obvious data to identify a therapeutic phenotype appropriate for investigating in Phase 3. To examine the relationship between HF duration and bucindolol effectiveness for reducing HF events, we analyzed data from the BEST trial (14) and pharmacogenetic substudy (17) for the endpoint of time to all-cause mortality or first HF hospitalization (ACM/HFH).

[2] = tested on: advanced HFrEF patients (ADRB1 Arg389Gly / ADRA2C Ins322-325Del genotypes); conditions: cited from earlier work
[3] = tested on: patients with HF and/or AF; assay: Literature β-blocker trials and meta-analyses for AF prevention / recurrence; assay type: in vivo, human
[4] = tested on: patients with HF and/or AF; conditions: cited from earlier work
[5] = BEST ADRB1 389Gly Carriers n = 482
[6] = BEST ADRB1 Arg389Arg, free of AF at randomization
[7] = BEST ADRB1 Arg389Arg, free of AF at randomization, bucindolol vs placebo
[8] = BEST DNA substudy all genotypes n = 1040
[9] = BEST, {ADRA2C Del carrier and ADRB1 Arg389Arg}
[10] = BEST, {ADRA2C Del carriers and ADRB1 389Gly carriers}

CC(C)(Cc1c[nH]c2ccccc12)NCC(O)COc1ccccc1C#N (centres unmarked) [bucindolol, 2-(3-(1-(1H-indol-3-yl)-2-methylpropan-2-ylamino)-2-hydroxypropoxy)benzonitrile]
Events/patients (rate), time to AF/AFL/ACM [1, 5]: (26.8%)
Events/patients, time to AF/AFL/ACM [1, 5]: 61/228
Hazard Ratio (95% C.I.), time to AF/AFL/ACM ([1]; BEST ADRB1 389Gly Carriers, bucindolol vs placebo): 0.95
Events/patients (rate), time to AF/AFL/ACM ([1]; BEST ADRB1 Arg389Arg n = 435): (18.5%)
Events/patients, time to AF/AFL/ACM ([1]; BEST ADRB1 Arg389Arg n = 435): 43/232
ACM events [1, 6]: 33
ACM events/pt (%) [1, 6]: 14.0%
ACM/CVH events [1, 6]: 106
ACM/CVH events/pt (%) [1, 6]: 45.1%
ACM/HFH events [1, 6]: 82
ACM/HFH events/pt (%) [1, 6]: 34.9%
CVH events [1, 6]: 88
CVH events/pt (%) [1, 6]: 37.5%
CVM events [1, 6]: 25
CVM events/pt (%) [1, 6]: 10.6%
CVM/HFH events [1, 6]: 76
CVM/HFH events/pt (%) [1, 6]: 32.3%
HFH events [1, 6]: 65
HFH events/pt (%) [1, 6]: 27.7%
ACM HzR [1, 7]: 0.61
ACM/CVH HzR [1, 7]: 0.72
ACM/HFH HzR [1, 7]: 0.69
CVH HzR [1, 7]: 0.69
CVM HzR [1, 7]: 0.54
CVM/HFH HzR [1, 7]: 0.66
HFH HzR [1, 7]: 0.70
Hazard Ratio (95% C.I.), time to AF/AFL/ACM ([1]; BEST ADRB1 Arg389Arg, bucindolol vs placebo): 0.49
Events/patients (rate), time to AF/AFL/ACM [1, 8]: (22.6%)
Events/patients, time to AF/AFL/ACM [1, 8]: 104/460
Hazard Ratio (95% C.I.), time to AF/AFL/ACM ([1]; BEST DNA substudy all genotypes, bucindolol vs placebo): 0.70
Events/patients (rate), time to AF/AFL/ACM ([1]; BEST Entire Cohort n = 2708): (33.6%)
Events/patients, time to AF/AFL/ACM ([1]; BEST Entire Cohort n = 2708): 401/1193
Hazard Ratio (95% C.I.), time to AF/AFL/ACM ([1]; BEST Entire Cohort, bucindolol vs placebo): 0.80
Reduction in NE ([2]; BEST trial at 12 weeks): 75 pg/mL
Decrease in NE (sympatholysis) ([2]; BEST, ADRA2C Del genotypes): 153 pg/mL
Decrease in NE (sympatholysis) ([2]; BEST, ADRA2C Ins homozygotes): 50 pg/mL
Effect sizes, time to ACM or HF hospitalization and CV mortality or CV hospitalization ([2]; BEST, ADRB1 Arg389Arg subset in permanent AF): exceeding 70%
Reduction in the development (risk) of AF vs. placebo ([2]; BEST, ADRB1 Arg389Arg, sinus rhythm at baseline): 74%
Reduction in NE ([2]; BEST, {ADRA2C Del carrier and ADRB1 Arg389Arg} combination genotype): 120 pg/mL
Hazard ratio, ACM, bucindolol vs. placebo [2, 9]: 0.50
Hazard ratio, CVM, bucindolol vs. placebo [2, 9]: 0.40
Hazard ratio, heart failure hospitalization burden, bucindolol vs. placebo [2, 9]: 0.60
Hazard ratio, ACM, bucindolol vs. placebo [2, 10]: 1.04
Hazard ratio, CVM, bucindolol vs. placebo [2, 10]: 1.11
Hazard ratio, heart failure hospitalization burden, bucindolol vs. placebo [2, 10]: 1.19
Predicted relative effect size in favor of bucindolol vs. metoprolol ([3]; RES = Ln HzR1/Ln HzR2, prevention of AF in HFrEF): 2.1 fold
Effect size in a direct comparison of bucindolol to metoprolol (estimated) ([3]; from relative effect size): 51%
Risk ratio in a direct comparison of bucindolol to metoprolol (estimated) ([3]; from relative effect size): 0.49

COCCc1ccc(OCC(O)CNC(C)C)cc1 (centres unmarked) [metoprolol, metoprolol succinate, reference compound]
Lowering of AF risk ([4]; HFrEF (MERIT-HF)): 48%
Incidence of AF recurrence ([4]; persistent AF, ECV to SR, end of 6-month follow-up): 52%

Source: US10925856B2, “Methods and compositions involving bucindolol for the treatment of atrial fibrillation” (priority 2018, dated 2021)
